From PMC7718273 (Scientific Reports, 2020)
Where two headings read alike, the source gives them in different places.

How the values were obtained:
[1] = target: T1, CYP 2C19 (Homo sapiens, UniProt P33261); assay: CYPs inhibition, human liver microsome, substrate cocktail; format: in vitro ADME; settings: 3rd of 5 values; head prints D; footnote lists CYPs 1A2, 2C9, 2C19, 2D6, 3A4; read-out: CYPs inhibition (IC50, µM) (H/Mk/D/R/M)
T1 construct: from tissue; host or cells: human liver microsomes
Excerpt: (§1) Metabolites of the substrate probes were simultaneously analyzed by multiple-reaction monitoring using routine LC-MS/MS.

[2] = target: T2, CYP 2D6 (Homo sapiens, UniProt P10635); assay: as above; format: in vitro ADME; settings: 4th of 5 values; head prints R; footnote lists CYPs 1A2, 2C9, 2C19, 2D6, 3A4; read-out: CYPs inhibition (IC50, µM) (H/Mk/D/R/M)
T2 construct: from tissue; host or cells: human liver microsomes
T2 sequence (P10635 whole entry): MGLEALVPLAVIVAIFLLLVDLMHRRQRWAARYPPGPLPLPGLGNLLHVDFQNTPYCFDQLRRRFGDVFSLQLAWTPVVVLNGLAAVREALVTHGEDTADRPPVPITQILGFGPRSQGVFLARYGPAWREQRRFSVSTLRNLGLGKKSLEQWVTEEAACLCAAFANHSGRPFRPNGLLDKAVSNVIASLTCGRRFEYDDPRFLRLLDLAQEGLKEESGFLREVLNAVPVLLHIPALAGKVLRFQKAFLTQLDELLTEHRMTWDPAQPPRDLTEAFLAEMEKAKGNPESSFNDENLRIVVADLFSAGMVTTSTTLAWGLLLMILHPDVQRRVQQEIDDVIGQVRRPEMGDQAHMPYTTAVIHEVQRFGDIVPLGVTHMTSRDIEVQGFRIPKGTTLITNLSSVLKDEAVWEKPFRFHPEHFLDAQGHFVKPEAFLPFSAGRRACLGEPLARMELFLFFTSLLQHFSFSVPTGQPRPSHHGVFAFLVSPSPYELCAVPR
Excerpt: as §1

[3] = target: T3, CYP 1A2 (Homo sapiens, UniProt P05177); assay: as above; format: in vitro ADME; settings: 1st of 5 values; head prints H; footnote lists CYPs 1A2, 2C9, 2C19, 2D6, 3A4; read-out: CYPs inhibition (IC50, µM) (H/Mk/D/R/M)
T3 construct: from tissue; host or cells: human liver microsomes
T3 sequence (P05177 whole entry): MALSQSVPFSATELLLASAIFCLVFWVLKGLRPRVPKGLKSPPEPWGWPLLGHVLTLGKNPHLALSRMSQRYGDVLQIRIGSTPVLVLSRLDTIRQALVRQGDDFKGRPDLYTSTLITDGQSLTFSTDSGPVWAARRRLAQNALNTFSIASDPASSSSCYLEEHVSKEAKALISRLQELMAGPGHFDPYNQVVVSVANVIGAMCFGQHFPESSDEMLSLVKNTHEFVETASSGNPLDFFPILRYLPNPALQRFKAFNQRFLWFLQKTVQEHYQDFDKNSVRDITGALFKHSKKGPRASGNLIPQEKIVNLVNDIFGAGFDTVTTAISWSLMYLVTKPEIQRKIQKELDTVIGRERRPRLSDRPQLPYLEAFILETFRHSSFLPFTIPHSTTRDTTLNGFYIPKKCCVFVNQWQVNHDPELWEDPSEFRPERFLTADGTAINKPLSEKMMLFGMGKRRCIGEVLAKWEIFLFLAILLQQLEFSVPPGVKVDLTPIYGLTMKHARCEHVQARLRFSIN
Excerpt: as §1

[4] = target: T4, CYP 2C9 (Homo sapiens, UniProt P11712); assay: as above; format: in vitro ADME; settings: 2nd of 5 values; head prints Mk; footnote lists CYPs 1A2, 2C9, 2C19, 2D6, 3A4; read-out: CYPs inhibition (IC50, µM) (H/Mk/D/R/M)
T4 construct: from tissue; host or cells: human liver microsomes
T4 sequence (P11712 whole entry): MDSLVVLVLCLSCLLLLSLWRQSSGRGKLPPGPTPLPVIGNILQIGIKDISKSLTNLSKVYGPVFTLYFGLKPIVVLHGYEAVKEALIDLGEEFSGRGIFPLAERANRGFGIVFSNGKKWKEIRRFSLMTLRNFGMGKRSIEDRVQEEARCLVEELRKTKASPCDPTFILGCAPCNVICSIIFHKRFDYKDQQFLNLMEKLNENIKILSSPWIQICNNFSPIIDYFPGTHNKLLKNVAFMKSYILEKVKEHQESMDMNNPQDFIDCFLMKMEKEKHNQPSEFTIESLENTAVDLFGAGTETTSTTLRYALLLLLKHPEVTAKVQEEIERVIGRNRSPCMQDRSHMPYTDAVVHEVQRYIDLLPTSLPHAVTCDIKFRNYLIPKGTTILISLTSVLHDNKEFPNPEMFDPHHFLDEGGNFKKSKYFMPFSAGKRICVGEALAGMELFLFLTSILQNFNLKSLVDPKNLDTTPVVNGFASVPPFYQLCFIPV
Excerpt: as §1

[5] = target: T5, CYP 3A4 (Homo sapiens, UniProt P08684); assay: as above; format: in vitro ADME; settings: 5th of 5 values; head prints M; footnote lists CYPs 1A2, 2C9, 2C19, 2D6, 3A4; read-out: CYPs inhibition (IC50, µM) (H/Mk/D/R/M)
T5 construct: from tissue; host or cells: human liver microsomes
T5 sequence (P08684 whole entry): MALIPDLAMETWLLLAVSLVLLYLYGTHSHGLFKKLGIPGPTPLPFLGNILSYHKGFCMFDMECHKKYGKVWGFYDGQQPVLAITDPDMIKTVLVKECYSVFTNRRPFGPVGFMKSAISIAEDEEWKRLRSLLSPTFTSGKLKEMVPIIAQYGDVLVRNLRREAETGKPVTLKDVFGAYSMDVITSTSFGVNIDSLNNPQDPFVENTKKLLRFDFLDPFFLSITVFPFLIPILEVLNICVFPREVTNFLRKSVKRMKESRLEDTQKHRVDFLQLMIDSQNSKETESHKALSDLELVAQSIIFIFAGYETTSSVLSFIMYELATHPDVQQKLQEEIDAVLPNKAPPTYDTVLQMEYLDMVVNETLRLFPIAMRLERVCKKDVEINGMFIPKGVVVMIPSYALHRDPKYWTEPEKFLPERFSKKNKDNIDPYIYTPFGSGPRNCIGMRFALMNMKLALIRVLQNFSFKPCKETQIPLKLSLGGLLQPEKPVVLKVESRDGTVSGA
Excerpt: as §1

[6] = tested on: differentiated 3T3/L1 adipocytes; assay: hFGF21 signalling in differentiated 3T3/L1 adipocytes with added FAP (immunoblot); format: cell-based; settings: 5 µM; hFGF21 500 ng/mL pre-incubated with FAP 100 ng/mL for 2 h
Procedure: Treatment with hFGF21 increased p-ERK, Glut1 and adiponectin levels, which were reduced in the presence of FAP.
(a) Fully differentiated 3T3/L1 adipocytes were incubated with full-length hFGF21 at 500 ng/mL. […] Phosphorylated ERK (p-ERK), total ERK (ERK), Glut1, adiponectin and β-actin were measured by immunoblots. (b) Quantification of p-ERK, Glut1 and adiponectin was obtained with densitometric analysis, and normalized with total ERK or β-actin, respectively.
Western blots were performed as described. For protein preparation, cells or tissues were solubilized in a lysis buffer. Protein concentration was determined using a Bio-Rad Protein Assay kit (Bio-Rad, Richmond, CA). Then, 20 μg of the protein was electrophoresed by SDS-PAGE and electrotransferred to polyvinylidene fluoride membranes (Millipore, Bedford, MA). […] Antibodies were detected by horseradish peroxidase-linked secondary antibody (1:10,000; Cell Signaling Tech., 7074S), using the enhanced chemiluminescence Western Blotting Detection System (Molecular Imager Gel Doc XR System, BIO-RAD). […]

[7] = Pharmacokinetic study in mice; format: in vivo, C57BL/6J mice; settings: mouse, plasma
Procedure: Mice were administered with BR103354 either p.o. […] (2 mg/kg). […] These samples were then centrifuged at 13,000 rpm for 10 min to obtain plasma. […] Samples were analyzed on an API 4500 Qtrap LC‐MS/MS system (Applied Biosystems/MDS Sciex, Toronto, Canada) coupled with Agilent 1200 HPLC (Agilent Technologies, Santa Clara, CA). Plasma concentration–time data were analyzed by non-compartmental method using the nonlinear least-squares regression program WinNonlin (Pharsight, Mountain View, CA).

[8] = tested on: Normal cynomolgus monkeys; assay: In vivo study using cynomolgus monkeys: plasma concentration and intact FGF21; settings: cynomolgus monkeys (n = 3), 50 mg/kg intranasal, range of individual animals
Procedure: Intact FGF21 levels in plasma were measured by ELISA.
FAP activity and intact FGF21 concentrations were measured as described above.

[9] = Microsomal stability, rat; format: in vitro ADME; settings: liver microsomes, pH 7.4, rat (R), 0.5 mg/mL, NADPH, read-out: Microsomal stability (% remaining at 60 min)
Procedure: (§2) Aliquots were then transferred in duplicate to: (i) a final concentration plate that was immediately quenched with 23.6 ng/mL internal standard (IS, chlorpropamide) in acetonitrile (ACN) or (ii) tubes, which were centrifuged for 5 min at 4℃ (14,000 rpm). The samples were subjected to LC–MS/MS analysis on an AB Sciex 4000 Q Trap hybrid triple quadrupole linear ion-trap MS (AB Sciex, Framingham, MA) coupled to an Agilent 1200 HPLC (Agilent Tech. Santa Clara, CA) with a reverse-phase Kinetex XB-C18 column (2.1 × 100 mm, 2.6 µm; Phenomenex). Mobile phases were comprised of 0.1% formic acid (FA) in water (A) and 0.1 FA in ACN (B). Data analysis was performed using […] (Ver. 1.6.1).

[10] = Plasma protein binding, mouse; format: in vitro ADME; settings: mouse (M), read-out: Plasma protein binding (% bound) (converted)
[11] = Microsomal stability, monkey; format: in vitro ADME; settings: liver microsomes, pH 7.4, monkey (Mk), 0.5 mg/mL, NADPH, read-out: Microsomal stability (% remaining at 60 min)
Procedure: as §2

[12] = male, C57BL/6J, po, p.o. 1 mg/kg
[13] = male, C57BL/6J, po, p.o. 5 mg/kg
[14] = male, C57BL/6J, po, p.o. 10 mg/kg
[15] = male, C57BL/6J, po, p.o. 100 mg/kg
[16] = male, C57BL/6J, po, p.o. 200 mg/kg

T1 sequence (P33261 whole entry): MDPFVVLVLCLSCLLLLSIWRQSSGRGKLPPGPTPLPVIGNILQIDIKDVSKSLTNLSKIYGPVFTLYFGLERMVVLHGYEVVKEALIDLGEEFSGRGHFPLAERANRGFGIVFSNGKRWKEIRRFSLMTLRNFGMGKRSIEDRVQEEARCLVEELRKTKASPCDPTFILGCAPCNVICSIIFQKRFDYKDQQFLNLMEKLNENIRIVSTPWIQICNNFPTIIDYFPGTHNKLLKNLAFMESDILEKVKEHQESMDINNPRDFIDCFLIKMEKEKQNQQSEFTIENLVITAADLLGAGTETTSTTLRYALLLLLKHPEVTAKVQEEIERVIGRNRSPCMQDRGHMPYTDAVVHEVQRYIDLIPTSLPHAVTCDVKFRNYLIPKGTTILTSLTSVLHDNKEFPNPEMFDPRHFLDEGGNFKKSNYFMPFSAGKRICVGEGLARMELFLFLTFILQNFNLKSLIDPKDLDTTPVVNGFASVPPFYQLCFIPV

N#Cc1ccc(Cc2nc(C(=O)NCC(=O)N3CC(F)(F)C[C@H]3C#N)cs2)cc1 [BR103354, (S)-N-(2-(2-cyano-4,4-difluoropyrrolidin-1-yl)-2-oxoethyl)-2-(4-cyanobenzyl)thiazole-4-carboxamide]
IC50 [1]: > 50 µM | IC50 [2]: > 50 µM | IC50 [3]: > 50 µM | IC50 [4]: > 50 µM | IC50 [5]: > 50 µM | Glut1 levels [6]: enhanced Glut1 levels | p-ERK levels [6]: restored p-ERK levels to those of normal | half-life ([7]; male, C57BL/6J, po, mice, all doses, read-out: half-life (T1/2), range over doses): 1.2 to 4 h | AUC(0-t) [7, 12]: 3.7 µg·h/mL | Cmax [7, 12]: 2.3 µg/mL | Tmax [7, 12]: 0.5 h | half-life ([7]; male, C57BL/6J, po, p.o. 1 mg/kg, read-out: T1/2 (converted)): 1.2 h | AUC(0-t) [7, 13]: 10.8 µg·h/mL | Cmax [7, 13]: 7.2 µg/mL | Tmax [7, 13]: 0.5 h | half-life ([7]; male, C57BL/6J, po, p.o. 5 mg/kg, read-out: T1/2 (converted)): 1.1 h | AUC(0-t) [7, 14]: 41.1 µg·h/mL | Cmax [7, 14]: 19.2 µg/mL | Tmax [7, 14]: 0.5 h | half-life ([7]; male, C57BL/6J, po, p.o. 10 mg/kg, read-out: T1/2 (converted)): 1.2 h | AUC(0-t) [7, 15]: 17 µg·h/mL | Cmax [7, 15]: 66 µg/mL | Tmax [7, 15]: 1 h | half-life ([7]; male, C57BL/6J, po, p.o. 100 mg/kg, read-out: T1/2 (converted)): 4 h | AUC(0-t) [7, 16]: 29.2 µg·h/mL | Cmax [7, 16]: 122 µg/mL | Tmax [7, 16]: 1 h | half-life ([7]; male, C57BL/6J, po, p.o. 200 mg/kg, read-out: T1/2 (converted)): 3.8 h | bioavailability ([7]; male, C57BL/6J, oral, i.v. 2 mg/kg): 48.4% | Tmax ([7]; summary in discussion, species and dose not stated): 1 h | half-life ([7]; summary in discussion, species and dose not stated, read-out: T1/2 (converted)): 1.2 h | increase of intact FGF21, maximal [8]: 1.5–3.5 fold | remaining at 1 h, 1 µM [9]: 87% | fraction unbound at 1 µg/mL [10]: 0.22 | remaining at 1 h, 1 µM [11]: 81%
